According to patent publication US5688787A, “Substituted β-lactam compounds useful as hypochlesterolemic agents and processes for the preparation thereof” (priority 1996, dated 1997):
Read-outs that look alike come from different tables or passages of the source.

Test system: Hyperlipidemic Hamster
Assay: In Vivo Assay of Hypolipidemic Agents Using the Hyperlipidemic Hamster
Details: Mesocricetus auratus, po, 168 h, 7 days, percent change versus control, negative = lowering; for change in vivo at 50 mg/kg: 50 mg/kg once daily oral; for change in vivo at 3 mg/kg: 3 mg/kg once daily oral; for change in vivo at 10 mg/kg: 10 mg/kg once daily oral; for change in vivo at 40 mg/kg: 40 mg/kg once daily oral
Experimental: In Vivo Assay of Hypolipidemic Agents Using the Hyperlipidemic Hamster
Hamsters are separated into groups of six and given a controlled cholesterol diet (Purina Chow #5001 containing 0.5% cholesterol) for seven days. Diet consumption is monitored to determine dietary cholesterol exposure in the face of test compounds. The animals are dosed with the test compound once daily beginning with the initiation of diet. Dosing is by oral gavage of 0.2mL of corn oil alone (control group) or solution (or suspension) of test compound in corn oil. All animals roodbund or in poor physical condition are euthanized. After seven days, the animals are anesthetized by IM injection of ketamine and sacrificed by decapitation. Blood is collected into vacutainer tubes containing EDTA for plasma lipid analysis and the liver excised for tissue lipid analysis. Data is reported as percent reduction of lipid versus control.
Using the test procedures described above, the following in vitro and in vivo data were obtained for the preferred compounds, which are referred to in the following table by the corresponding example numbers. For the in vitro ACAT data, negative percent inhibition denotes apparent stimulation,while positive numbers denote inhibition. For the in vivo results, data is reported as percent change versus control, therefore, negative numbers indicate a positive lipid-lowering effect.

[1] = read-out: % Reduction (in vivo) Cholest. Esters
[2] = read-out: % Reduction (in vivo) Serum Cholest.

Row | Compound | change in vivo at 50 mg/kg [1] [%] | change in vivo at 50 mg/kg [2] [%] | also measured
1 | COc1ccc([C@@H]2[C@@H](CCCc3ccccc3)C(=O)N2c2ccc(I)cc2)cc1 (relative stereo) [Example 7AA] | -42 | -10 | –
2 | CCCCCCCCCC[C@H]1C(=O)N(c2ccc(OC)cc2)[C@@H]1c1ccc(OC)cc1 (relative stereo) [Example 7AG] | -15 | 0 | –
3 | COc1ccc([C@@H]2[C@@H](/C=C\Cc3ccccc3)C(=O)N2c2ccc(OC)cc2)cc1 (relative stereo) [Example 7AI] | -95 | -63 | change in vivo at 3 mg/kg [1]: -46%; change in vivo at 3 mg/kg [2]: -11%; change in vivo at 10 mg/kg [1]: -73%; change in vivo at 10 mg/kg [2]: -20%
4 | COc1ccc([C@@H]2[C@@H](/C=C/Cc3ccccc3)C(=O)N2c2ccc(OC)cc2)cc1 (relative stereo) [Example 7AJ] | -18 | 0 | –
5 | COc1ccc([C@@H]2[C@@H](CCCC3CCCCC3)C(=O)N2c2ccc(OC)cc2)cc1 (relative stereo) [Example 7AK] | -28 | 12 | –
6 | COc1ccc([C@@H]2[C@H](Oc3ccc4ccccc4c3)C(=O)N2c2ccc(OC)cc2)cc1 (relative stereo) [Example 7AL] | 0 | -13 | –
7 | COc1ccc([C@@H]2[C@@H](CCCCCc3ccccc3)C(=O)N2c2ccc(OC)cc2)cc1 (relative stereo) [Example 7AM] | -70 | -24 | –
8 | COc1ccc([C@@H]2[C@@H](CCOc3ccc([N+](=O)[O-])cc3)C(=O)N2c2ccccc2)cc1 (relative stereo) [Example 7AN] | -42 | -12 | –
9 | COc1ccc([C@@H]2[C@@H](Cc3ccc4ccccc4c3)C(=O)N2c2ccccc2)cc1 (relative stereo) [Example 7AO] | -90 | -41 | –
10 | COc1ccc(OCC[C@H]2C(=O)N(c3ccccc3)[C@@H]2c2ccc(OC)cc2)cc1 (relative stereo) [Example 7AP] | -82 | -24 | –
11 | COc1ccc([C@@H]2[C@H](Cc3ccc4ccccc4c3)C(=O)N2c2ccccc2)cc1 (relative stereo) [Example 7AQ] | -91 | -52 | –
12 | COc1ccc([C@@H]2[C@@H](CCCc3ccccc3)C(=O)N2c2ccc3c(c2)CCC3)cc1 (relative stereo) [Example 7AR] | -88 | -32 | –
13 | COc1ccc([C@@H]2[C@@H](CCCc3ccccc3)C(=O)N2c2cccc3c2CCCC3)cc1 (relative stereo) [Example 7AS] | -20 | 0 | –
14 | COc1ccc([C@@H]2[C@@H](CCCc3ccccc3)C(=O)N2c2cnc3ccccc3c2)cc1 (relative stereo) [Example 7AT] | -32 | -10 | –
15 | CCOC(=O)c1ccc(N2C(=O)[C@H](CCCc3ccccc3)[C@H]2c2ccc(OC)cc2)cc1 (relative stereo) [Example 7A] | -54 | -22 | –
16 | COc1ccc([C@@H]2[C@@H](CCCc3ccccc3)C(=O)N2c2cccc([N+](=O)[O-])c2)cc1 (relative stereo) [Example 7B] | -45 | -13 | –
17 | CCN(CC)c1ccc(N2C(=O)[C@H](CCCc3ccccc3)[C@H]2c2ccc(OC)cc2)cc1 (relative stereo) [Example 7C] | -95 | -51 | –
18 | COc1ccc([C@@H]2[C@@H](CCCc3ccccc3)C(=O)N2c2ccc(C#N)cc2)cc1 (relative stereo) [Example 7D] | -74 | -35 | –
19 | COc1ccc([C@@H]2[C@@H](CCCc3ccccc3)C(=O)N2c2cc(F)cc(F)c2)cc1 (relative stereo) [Example 7E] | -93 | -52 | –
20 | COc1ccc([C@@H]2[C@@H](CCCc3ccccc3)C(=O)N2c2ccc(OC)nc2)cc1 (relative stereo) [Example 7F] | -26 | 0 | –

Row | Compound | change in vivo at 50 mg/kg [1] [%] | change in vivo at 50 mg/kg [2] [%] | also measured
21 | COC(=O)C=C(C)N[C@@H]1C(=O)N(c2ccccc2)[C@@H]1c1ccc(OC)cc1 (relative stereo) [Example 7J] | -27 | -21 | –
22 | COc1ccc([C@@H]2[C@H](N(C)CCc3ccccc3)C(=O)N2c2ccccc2)cc1 (relative stereo) [Example 7K] | -32 | 0 | –
23 | COc1ccc([C@@H]2[C@H](N3C(=O)c4ccccc4C3=O)C(=O)N2c2ccccc2)cc1 (relative stereo) [Example 7L] | 0 | 0 | –
24 | COc1ccc(N2C(=O)[C@H](CCCc3ccccc3)[C@H]2c2ccc(OC(C)C)cc2)cc1 (relative stereo) [Example 7M] | -94 | -38 | –
25 | CCOC(=O)[C@@H]1[C@H](CCCc2ccccc2)C(=O)N1c1ccc(OC)cc1 (relative stereo) [Example 7N] | 0 | -11 | –
26 | COc1ccc([C@@H]2[C@@H](CCCc3ccccc3)C(=O)N2c2ccccc2)cn1 (relative stereo) [Example 7O] | -20 | -14 | –
27 | CCCOc1ccc([C@@H]2[C@@H](CCCc3ccccc3)C(=O)N2c2ccc(OC)cc2)cc1 (relative stereo) [Example 7P] | -95 | -40 | –
28 | COc1ccc(N2C(=O)[C@H](CCCc3ccccc3)[C@H]2c2ccc(OC)c(C)c2)cc1 (relative stereo) [Example 7Q] | 0 | -16 | –
29 | COC(=O)c1ccc([C@@H]2[C@@H](CCCc3ccccc3)C(=O)N2c2ccccc2)cc1 (relative stereo) [Example 7R] | -80 | -35 | –
30 | COc1ccc(N2C(=O)[C@H](CCCc3ccccc3)[C@H]2c2ccc(OC)c(F)c2)cc1 (relative stereo) [Example 7S] | -82 | -27 | –
31 | COCOc1ccc([C@@H]2[C@@H](CCCc3ccccc3)C(=O)N2c2ccccc2)cc1 (relative stereo) [Example 7T] | -93 | -49 | –
32 | COc1ccc(N2C(=O)[C@H](CCCc3ccccc3)[C@H]2c2ccc(N(C)C)cc2)cc1 (relative stereo) [Example 7U] | -60 | -29 | –
33 | COc1ccc(C(=O)[C@@H]2[C@@H](CCCc3ccccc3)C(=O)N2c2ccc(OC)cc2)cc1 (relative stereo) [Example 7V] | 0 | 0 | –
34 | COc1ccc(C(=O)[C@@H]2[C@H](CCCc3ccccc3)C(=O)N2c2ccc(OC)cc2)cc1 (relative stereo) [Example 7W] | 0 | 12 | –
35 | COc1ccc(N2C(=O)[C@H](CCCc3ccccc3)[C@H]2c2ccc(OC)cc2OC)cc1 (relative stereo) [Example 7X] | -78 | -26 | –
36 | CCOc1ccc([C@@H]2[C@@H](CCCc3ccccc3)C(=O)N2c2ccccc2)cc1 (relative stereo) [Example 7Y] | -94 | -53 | change in vivo at 3 mg/kg [1]: -55%; change in vivo at 3 mg/kg [2]: -22%; change in vivo at 10 mg/kg [1]: -79%; change in vivo at 10 mg/kg [2]: -27%
37 | COc1ccc([C@@H]2[C@@H](CCCc3ccc([N+](=O)[O-])cc3)C(=O)N2c2ccc(OC)cc2)cc1 (relative stereo) [Example 7Z] | -39 | -21 | –
38 | COc1ccc([C@@H]2[C@@H](CCCc3ccccc3)C(=O)N2c2ccccc2)cc1 (relative stereo) [Example 7] | – | – | change in vivo at 3 mg/kg [1]: -50%; change in vivo at 3 mg/kg [2]: -30%; change in vivo at 10 mg/kg [1]: -89.5%; change in vivo at 10 mg/kg [2]: -41%; change in vivo at 40 mg/kg [1]: -95%; change in vivo at 40 mg/kg [2]: -49%
39 | COc1ccc([C@@H]2[C@@H](CCCc3ccc(N)cc3)C(=O)N2c2ccc(OC)cc2)cc1 (relative stereo) [Example 8E] | -32 | 0 | –
40 | COc1ccc([C@@H]2[C@H](N)C(=O)N2c2ccccc2)cc1 (relative stereo) [Example 11] | 0 | -8 | –
